Series [1] has as its target histone deacetylase (HeLa nuclear extracts). As to the kind of experiment: In vitro assay for inhibition of histone deacetylase with fluorescent-labelled substrate (C.1.b). As to conditions: Fluor de Lys substrate. The format is biochemical. Here is the method: The HDAC Fluorescent Activity Assay/Drug Discovery Kit of Biomol (cat.No: AK-500-0001) was used. The HDAC Fluorescent Activity Assay is based on the Fluor de Lys (Fluorogenic Histone deAcetylase Lysyl) substrate and developer combination. The Fluor de Lys substrate, comprises an acetylated lysine side chain. Deacetylation of the substrate sensitizes the substrate so that, in the second step, treatment with the Fluor de Lys developer produces a fluorophore.
After 30 min, 1 volume of the developer was added. […] For each experiment, controls (containing HeLa nuclear extract and buffer), a blank incubation (containing buffer but no HeLa nuclear extract) and samples (containing compound dissolved in DMSO and further diluted in buffer and HeLa nuclear extract) were run in parallel. In first instance, compounds were tested at a concentration of 10^−5M. […] All sample were tested 4 times. In each test the blank value was subtracted from both the control and the sample values. The control sample represented 100% of substrate deactylation. For each sample the fluorescence was expressed as a percentage of the mean value of the controls. […] Herein the effects of test compounds are expressed as pIC50 (the negative log value of the IC50-value) (see Table F-3).

The subject of series [2] is A2780 ovarian carcinoma cells. As to the kind of experiment: Antiproliferative activity on A2780 cells, MTT (C.2). In kind it is cell-based. The conditions noted are these: Homo sapiens, 96 h, four days of incubation, read-out: Cellular activity pIC50 C.2 (converted). Here is the method: All compounds tested were dissolved in DMSO and further dilutions were made in culture medium. Final DMSO concentrations never exceeded 0.1% (v/v) in cell proliferation assays. Controls contained A2780 cells and DMSO without compound and blanks contained DMSO but no cells. MTT was dissolved at 5 mg/ml in PBS. A glycine buffer comprised of 0.1 M glycine and 0.1 M NaCl buffered to pH 10.5 with NaOH (1N) was prepared (all reagents were from Merck).
The human A2780 ovarian carcinoma cells (a kind gift from Dr. T. C. Hamilton [Fox Chase Cancer Centre, Pennsylvania, USA]) were cultured in RPMI 1640 medium supplemented with 2 mM L-glutamine, 50 μg/ml gentamicin and 10% fetal calf serum. Cells were routinely kept as monolayer cultures at 37° C. in a humidified 5% CO2 atmosphere. Cells were passaged once a week using a trypsin/EDTA solution at a split ratio of 1:40. All media and supplements were obtained from Life Technologies. Cells were free of mycoplasma contamination as determined using the Gen-Probe Mycoplasma Tissue Culture kit (supplier: BioMerieux).
Cells were seeded in NUNC™ 96-well culture plates (Supplier: Life Technologies) and allowed to adhere to the plastic overnight. Densities used for plating were 1500 cells per well in a total volume of 200 μl medium. After cell adhesion to the plates, medium was changed and drugs and/or solvents were added to a final volume of 200 μl. Following four days of incubation, medium was replaced by 200 μl fresh medium and cell density and viability was assessed using an MTT-based assay. To each well, 25 μl MTT solution was added and the cells were further incubated for 2 hours at 37° C. The medium was then carefully aspirated and the blue MTT-formazan product was solubilized by addition of 25 μl glycine buffer followed by 100 μl of DMSO. […] Within an experiment, the results for each experimental condition are the mean of 3 replicate wells. For initial screening purposes, compounds were tested at a single fixed concentration of 10^−6 M. For active compounds, the experiments were repeated to establish full concentration-response curves. For each experiment, controls (containing no drug) and a blank incubation (containing no cells or drugs) were run in parallel. The blank value was subtracted from all control and sample values. For each sample, the mean value for cell growth (in absorbance units) was expressed as a percentage of the mean value for cell growth of the control. […] Herein the effects of test compounds are expressed as pIC50 (the negative log value of the IC50-value)(see Table F-3).

Series [3] can be described thus: Solubility/stability at different pH's, chemiluminescent nitrogen detector (C.3.b). In kind it is physicochemical. As to conditions: aqueous buffer; pH = 2.3. From the text:
In a second method the solubility of a compound at different pH's can be measured with the use of a Chemiluminescent Nitrogen Detector (see example C.3.b).
The solubility of a compound, at different pH's, can also be measured with the use of a chemiluminescent nitrogen detector. (see Table F-3).

Experimental findings from patent US9150543B2, “Substituted indolyl alkyl amino derivatives as inhibitors of histone deacetylase” (Janssen Pharmaceutica N. V., priority 2004, dated 2015) are described below.

Each structure is given as a SMILES string. Converted amounts (≈) assume the structure as drawn.

Usually solubility stands for the dissolved amount per volume that the medium holds. As for `O=C(NO)c1cnc(N2CCC(CNCc3c[nH]c4ccccc34)CC2)nc1` [Compound 8], in series [1], the “Enzymatic activity pIC50 C.1.b” value is given as 8.3. Also, the IC50 in series [2] was 79.4 nM. The compound further gave a solubility in series [3] of 2400 µg/mL (≈ 6.31 mM).
As to `CCCCn1cc(CNCC2CCN(c3ncc(C(=O)NO)cn3)CC2)c2ccccc21` [Compound 43], the “Enzymatic activity pIC50 C.1.b” value in series [1] was 8.5. Moreover, the IC50 in series [2] is 15.8 nM. For the same compound, the solubility in series [3] came out at 2100 µg/mL (≈ 4.81 mM).
A word on the melting point: it is the temperature, or range, at which the solid turns liquid. `COc1ccc2c(CCNCC3CCN(c4ncc(C(=O)NO)cn4)CC3)cn(C)c2c1` [Compound 24] showed a melting point of 160 °C. Besides, the “Enzymatic activity pIC50 C.1.b” value in series [1] is 7.6. Moreover, in series [2], the IC50 is 316 nM. Moreover, the concentration in solution in series [3] (solubility) came to 1600 µg/mL (≈ 3.65 mM).
For the compound `O=C(NO)c1cnc(N2CCC(CNCc3c[nH]c4ccc(Cl)cc34)CC2)nc1` [Compound 2], the melting point stood at 205 °C. Moreover, the “Enzymatic activity pIC50 C.1.b” value in series [1] turned out to be 8.4. Also, in series [2], the IC50 is 31.6 nM.
Regarding `Cn1c(CNCC2CCN(c3ncc(C(=O)NO)cn3)CC2)cc2ccccc21` [Compound 11], the “Enzymatic activity pIC50 C.1.b” value in series [1] amounted to 8.2. Besides, the IC50 in series [2] is 31.6 nM. The same compound registered a solubility in series [3] of 2800 µg/mL (≈ 7.1 mM).
The matching figures for `Cn1cc(CNCC2CCN(c3ncc(C(=O)NO)cn3)CC2)c2cc(Cl)ccc21` [Compound 32]: 8.0, 3.98 nM and 1500 µg/mL (≈ 3.5 mM).
Regarding `COCCn1cc(CNCC2CCN(c3ncc(C(=O)NO)cn3)CC2)c2ccccc21` [Compound 47], the “Enzymatic activity pIC50 C.1.b” value in series [1] is recorded as 8.8. The IC50 in series [2] was 10 nM. Also, the concentration in solution in series [3] (solubility) was 4000 µg/mL (≈ 9.12 mM).
As for `CCCn1cc(CNCC2CCN(c3ncc(C(=O)NO)cn3)CC2)c2cc(Cl)ccc21` [Compound 27], the melting point turned out to be 171 °C. Moreover, the “Enzymatic activity pIC50 C.1.b” value in series [1] is more than 9.0. For the same compound, the IC50 in series [2] was 10 nM.
`Cc1cccc2c(CNCC3CCN(c4ncc(C(=O)NO)cn4)CC3)c[nH]c12` [Compound 14]: in series [1], the “Enzymatic activity pIC50 C.1.b” value was found to be 8.4. Moreover, in series [2], the IC50 is 39.8 nM. In addition, in series [3], the solubility was 1700 µg/mL (≈ 4.31 mM).
On to `Cc1ccc2c(c1)c(CNCC1CCN(c3ncc(C(=O)NO)cn3)CC1)cn2C` [Compound 36], for which the “Enzymatic activity pIC50 C.1.b” value in series [1] came out at 8.7. The IC50 in series [2] is 2.51 nM. Besides, the concentration in solution in series [3] (solubility) was 2500 µg/mL (≈ 6.12 mM).
Turning to `Cn1cc(CCN(CC2CCN(c3ncc(C(=O)NO)cn3)CC2)S(C)(=O)=O)c2cc(Cl)ccc21` [Compound 22], the melting point was 183 °C. The “Enzymatic activity pIC50 C.1.b” value in series [1] was 9.1. In addition, the IC50 in series [2] was 63.1 nM.
The corresponding values for `CCn1c(C)c(CCNC2CCN(c3ncc(C(=O)NO)cn3)CC2)c2ccccc21` [Compound 23] are 182 °C, 8.4 and 31.6 nM.
For the compound `Cn1cc(CNCC2CCN(c3ncc(C(=O)NO)cn3)CC2)c2cc(C#N)ccc21` [Compound 55], in series [1], the “Enzymatic activity pIC50 C.1.b” value is reported as 10.1. The IC50 in series [2] is 15.8 nM. In series [3], the solubility amounted to 2000 µg/mL (≈ 4.77 mM).
`Cn1cc(CNCC2CCN(c3ncc(C(=O)NO)cn3)CC2)c2cccc(F)c21` [Compound 30]: the “Enzymatic activity pIC50 C.1.b” value in series [1] is 9.0. Moreover, in series [2], the IC50 is 31.6 nM. In series [3], this compound returned a solubility of 2100 µg/mL (≈ 5.09 mM).
The corresponding values for `Cn1ccc2ccc(CNCC3CCN(c4ncc(C(=O)NO)cn4)CC3)cc21` [Compound 50] are 8.6, 25.1 nM and 2400 µg/mL (≈ 6.08 mM).
The matching figures for `CCN(Cc1cn(C)c2ccccc12)CC1CCN(c2ncc(C(=O)NO)cn2)CC1` [Compound 68]: more than 9.0, 63.1 nM and 2500 µg/mL (≈ 5.92 mM).
The corresponding values for `O=C(NO)c1cnc(N2CCC(CNCc3cc4ccccc4o3)CC2)nc1` [Compound 10] are 8.1, 31.6 nM and 3700 µg/mL (≈ 9.7 mM).
As to `Cn1cc(CNCC2CCN(c3ncc(C(=O)NO)cn3)CC2)c2c(F)cccc21` [Compound 39], the “Enzymatic activity pIC50 C.1.b” value in series [1] is on record as 9.0. Besides, the IC50 in series [2] was 31.6 nM. The concentration in solution in series [3] (solubility) was 2000 µg/mL (≈ 4.85 mM).
Take `Cn1cc(CCNCC2CCN(c3ncc(C(=O)NO)cn3)CC2)c2ccccc21` [Compound 19]: the melting point came out at 174 °C. Also, the “Enzymatic activity pIC50 C.1.b” value in series [1] is given as 8.0. Moreover, the IC50 in series [2] is 79.4 nM.
With `CCN(CCc1cn(C)c2ccc(Cl)cc12)CC1CCN(c2ncc(C(=O)NO)cn2)CC1` [Compound 65], in series [1], the “Enzymatic activity pIC50 C.1.b” value is more than 9.0. Also, the IC50 in series [2] was 31.6 nM. The same compound came in with a solubility in series [3] of 1600 µg/mL (≈ 3.4 mM).
The matching figures for `CCCn1cc(CNCC2CCN(c3ncc(C(=O)NO)cn3)CC2)c2cc3c(cc21)OCO3` [Compound 45]: 9.0, 200 nM and 1700 µg/mL (≈ 3.64 mM).
The corresponding values for `CN(Cc1cn(C)c2ccccc12)CC1CCN(c2ncc(C(=O)NO)cn2)CC1` [Compound 67] are 8.3, 31.6 nM and 1900 µg/mL (≈ 4.65 mM).
The matching figures for `Cc1ccc2c(CNCC3CCN(c4ncc(C(=O)NO)cn4)CC3)cn(C)c2c1` [Compound 79]: 8.4, 7.94 nM and 2700 µg/mL (≈ 6.61 mM).
Regarding `Cn1ccc2cc(CNCC3CCN(c4ncc(C(=O)NO)cn4)CC3)ccc21` [Compound 44], in series [1], the “Enzymatic activity pIC50 C.1.b” value is on record as 8.2. Further, the IC50 in series [2] was 39.8 nM. In series [3], this compound registered a solubility of 1800 µg/mL (≈ 4.56 mM).
Turning to `COc1ccc2c(c1)c(CNCC1CCN(c3ncc(C(=O)NO)cn3)CC1)cn2C` [Compound 33], in series [1], the “Enzymatic activity pIC50 C.1.b” value is 10.0. Further, in series [2], the IC50 was 31.6 nM. In series [3], this compound came in with a solubility of 1600 µg/mL (≈ 3.77 mM).
Turning to `CCCn1cc(CCN(CC)CC2CCN(c3ncc(C(=O)NO)cn3)CC2)c2ccc(OC)cc21` [Compound 25], the melting point was 80 °C. In series [1], the “Enzymatic activity pIC50 C.1.b” value is 7.6. Also, the IC50 in series [2] was 100 nM.
For `Cn1ccc2cccc(CNCC3CCN(c4ncc(C(=O)NO)cn4)CC3)c21` [Compound 57], in series [1], the “Enzymatic activity pIC50 C.1.b” value was found to be 10.2. In addition, the IC50 in series [2] was 25.1 nM. The concentration in solution in series [3] (solubility) was 2800 µg/mL (≈ 7.1 mM).
The compound `Cc1c(CCNCC2CCN(c3ncc(C(=O)NO)cn3)CC2)c2ccccc2n1C` [Compound 28] yielded a melting point of 80 °C. Moreover, the “Enzymatic activity pIC50 C.1.b” value in series [1] is 8.1. In series [2], the IC50 was 79.4 nM.
On to `Cn1cc(CCNCC2CCN(c3ncc(C(=O)NO)cn3)CC2)c2cc(Cl)ccc21` [Compound 26], for which the melting point stood at 188 °C. In addition, the “Enzymatic activity pIC50 C.1.b” value in series [1] was more than 9.0. Further, in series [2], the IC50 is 31.6 nM.
As for `CCN(CCc1cn(C)c2ccccc12)CC1CCN(c2ncc(C(=O)NO)cn2)CC1` [Compound 66], in series [1], the “Enzymatic activity pIC50 C.1.b” value was more than 9.0. The IC50 in series [2] was 39.8 nM. In series [3], this compound gave a solubility of 1700 µg/mL (≈ 3.89 mM).
Regarding `COc1cc2c(CNCC3CCN(c4ncc(C(=O)NO)cn4)CC3)cn(C)c2cc1OC` [Compound 60], the “Enzymatic activity pIC50 C.1.b” value in series [1] turned out to be 8.7. Further, in series [2], the IC50 is 126 nM. For the same compound, the solubility in series [3] worked out at 3100 µg/mL (≈ 6.82 mM).
The corresponding values for `Cn1ccc2c(CNCC3CCN(c4ncc(C(=O)NO)cn4)CC3)cccc21` [Compound 49] are 8.7, 31.6 nM and 3300 µg/mL (≈ 8.37 mM).
